Reference: US20050282755A1, “Compositions having antimicrobial activity and uses thereof” (priority 2004, published 2005)
In brackets after ≈: the same amount, converted by molar mass. Where two headings read alike, the source gives them in different places. Non-standard residues stand in square brackets, D forms with d. Residues, ends and D or L forms follow the SMILES beside them. *: point of attachment. Lauroyl = CCCCCCCCCCCC(=O)*

Columns and labels:
[1] = tested on: Jurkat cells; type: cell-based; settings: 16 h
Description: Toxicity of peptide compositions for mammalian cells was determined by using a metabolic viability assay. For this assay 4×10^5 HeLa cells were seeded per well into a microwell plate (50 microliters volume). Jurkat cells also were utilized in separate experiments. The cells were incubated for 16 hours at 37° C. under mammalian cell culture conditions. Two fold serial dilutions for each peptide were prepared and added to the cells (final volume 100 microliters) and incubated for 16 hours at 37° C. For each dilution series control wells containing cells without peptide were included. The metabolic activity and viability of the cells were determined by using a commercially available assay (CellTiter96 assay, Promega Corp.). According to manufacturer's protocol 20 microliters of CellTiter reagent was added to each well and incubated at 37° C. for 1-4 hours. The CellTiter assay is a commercial version of the MTT assay, which measures the conversion of a tetrazolium […] into a colored formazan salt in metabolically active cells. The formation of the formazan product can be measured at 470 nm and is generally accepted as a measure of cellular viability. The cells were incubated at 37° C. and monitored for color development. The conversion of CellTiter reagent was measured at 470 nm using a Versamax plate reader (Molecular Devices). The viability of peptide treated cells is expressed as IC50 (i.e., concentration that leads to a 50% reduction of viability relative to the untreated control). Table 7A reports IC50 values for HeLa cells cultured in OptiMEM or 10% FBS when contacted with peptide compositions from Table 3, and Table 7B reports IC50 values for HeLa cells or Jurkat cells contacted with peptide compositions from Table 3.

[2] = tested on: HeLa cells; settings: 16 h
[3] = tested on: Staphylococcus aureus ATCC 29213; test: MIC, NCCLS M7-A6 broth microdilution, cation-adjusted Mueller Hinton broth (Table 9, no superscript); type: cell-based; settings: ATCC 29213
Method in brief: (§1)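 Broth microdilution in cation-adjusted Mueller Hinton broth, log-phase inoculum giving 5×10^5 to 1×10^6 CFU/milliliter per well. Overnight incubation at 37° C. MIC taken as lowest peptide concentration with no visible turbidity versus a no-peptide control.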

[4] = tested on: Escherichia coli ATCC 25922; test: MIC, NCCLS M7-A6 broth microdilution (Table 9, no superscript); type: cell-based; settings: ATCC 25922
Method in brief: as §1

[5] = tested on: Pseudomonas aeruginosa ATCC 27853; test: as above; type: cell-based; settings: ATCC 27853
Method in brief: as §1

[6] = tested on: Salmonella dublin (Lane); test: as above; type: cell-based
Method in brief: as §1

[7] = tested on: Staphylococcus epidermidis ATCC 12228; test: as above; type: cell-based; settings: ATCC 12228
Method in brief: as §1

[8] = tested on: Propionibacterium acnes ATCC 6919; type: cell-based
Method in brief: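 MIC by non-standard broth microdilution in reinforced Clostridial broth, log-phase P. acnes inoculum at 5×10^5 to 1×10^6 CFU/mL. Plates were held anaerobically 48–72 h at 37° C; MIC was the lowest peptide concentration with no visible turbidity relative to the no-peptide control.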

[9] = tested on: Candida albicans ATCC 18804; test: MIC in yeasts, NCCLS M27-A2 broth microdilution, RPMI 1640 (Table 9, letter e); type: cell-based; settings: ATCC 18804
Method in brief: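 Broth microdilution per NCCLS M27-A2 in RPMI 1640 with glutamine and phenol red, final inoculum 0.5×10^3–2.5×10^3 CFU/milliliter. Incubated 24 to 48 hours at 37° C; MIC is the lowest peptide concentration with no visible growth.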

[10] = tested on: IL-12 release; test: Anti-inflammation assay: IL-12 release in PBMCs stimulated by P. acnes (IL-12p70 ELISA); type: cell-based, human; settings: for IC50: PBMCs stimulated by P. acnes, over night, read-out: IC50 value, reduction of IL-12 release
Description: An assay that detected reductions in IL-12 released in whole human blood cells (PBMCs) was utilized to detect reductions in inflammation elicited by peptide compositions described herein. The assay utilized the following materials and reagents: whole human blood cells; P. acnes; peptides 55, 67 and 93 from Table 3; IL-12p70 ELISA kit (eBiosciences); RPMI 1640 growth medium; PBS; and a 96-well microtiter plate. PBMCs were prepared from whole human blood cells according to standard procedures and cells were resuspended in RPMI 1640 and 10% FCS. Cells were seeded at 250,000 cells per well in a 96-well microtiter plate and incubated for 90 minutes. […] Controls included untreated cells, P. acnes alone or a peptide alone. The cells were incubated over night at 37° C., and cell supernatants were collected and stored at −80° C. for use in an IL-12 ELISA assay (eBiosciences). A 1:1 dilution of supernatant was utilized to perform the IL-12 ELISA following the protocol provided by the manufacturer.

[11] = tested on: Propionibacterium acnes ATCC 6919; test: MIC, agar dilution method NCCLS M11-A6, Brucella agar, anaerobic (Table 9, superscript c); type: cell-based; settings: letter c: agar dilution NCCLS M11-A6, Brucella agar, anaerobic
Method in brief: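 Agar dilution per NCCLS M11-A6 on Brucella agar; final inoculum 1.5×10^8 CFU/milliliter applied to plates, incubated 48-96 hours at 37° C. under anaerobic (GasPak) conditions. MIC = lowest peptide concentration with no colony growth.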

[12] = tested on: Pseudomonas aeruginosa ATCC 27853; settings: ATCC 27853, pH 7.4

SMILES	IC50 [1]	IC50 [2]	MIC S. aureus [3]	MIC E. coli [4]	MIC P. aeruginosa [5]	MIC S. dublin [6]	MIC S. epidermidis [7]	MIC P. acnes [8]	MIC C. albicans [9]	IC50 [10]	MIC P. acnes [11]	MIC P. aeruginosa [12]	reduction of IL-12 release in PBMs stimulated by P. acnes ([10]; 12.5 to 0.78 micrograms per milliliter)
CSCC[C@H](NC(=O)[C@H](Cc1ccccc1)NC(=O)[C@H](CC(N)=O)NC(=O)[C@H](CCCNC(=N)N)NC(=O)[C@H](CO)NC(=O)[C@H](Cc1c[nH]c2ccccc12)NC(=O)[C@H](CC(=O)O)NC(=O)[C@H](CCCNC(=N)N)NC(=O)[C@H](Cc1c[nH]c2ccccc12)NC(=O)[C@H](CCCNC(=N)N)NC(=O)[C@H](CO)NC(=O)[C@H](CCCNC(=N)N)NC(=O)CNC(=O)[C@@H](NC(=O)[C@H](CCCNC(=N)N)NC(=O)[C@H](CO)NC(=O)[C@@H](NC(=O)[C@H](CCCNC(=N)N)NC(=O)[C@@H](NC(C)=O)[C@@H](C)O)C(C)C)[C@@H](C)O)C(=O)N[C@@H](CCCNC(=N)N)C(=O)N[C@@H](C)C(=O)N[C@@H](C)C(N)=O [Peptide 1]	> 100 µM	> 100 µM											
CSCC[C@@H](NC(=O)[C@@H](Cc1ccccc1)NC(=O)[C@@H](CC(N)=O)NC(=O)[C@@H](CCCNC(=N)N)NC(=O)[C@@H](CO)NC(=O)[C@@H](Cc1c[nH]c2ccccc12)NC(=O)[C@@H](CC(=O)O)NC(=O)[C@@H](CCCNC(=N)N)NC(=O)[C@@H](Cc1c[nH]c2ccccc12)NC(=O)[C@@H](CCCNC(=N)N)NC(=O)[C@@H](CO)NC(=O)[C@@H](CCCNC(=N)N)NC(=O)CNC(=O)[C@H](NC(=O)[C@@H](CCCNC(=N)N)NC(=O)[C@@H](CO)NC(=O)[C@H](NC(=O)[C@@H](CCCNC(=N)N)NC(=O)[C@H](NC(C)=O)[C@H](C)O)C(C)C)[C@H](C)O)C(=O)N[C@H](CCCNC(=N)N)C(N)=O [Peptide 33, Ac-trvsrtgrsrwrdwsrnfmr-NH2] (Ac-[dT][dR][dV][dS][dR][dT]G[dR][dS][dR][dW][dR][dD][dW][dS][dR][dN][dF][dM][dR]-NH2)	67.5 µM	> 100 µM	>64 µg/mL	>64 µg/mL	>64 µg/mL	64 µg/mL (≈ 24.1 µM)	32 µg/mL (≈ 12.1 µM)	12.5 µg·days/mL	16e ug/mL				
CCCCCCCCCCCC(=O)N[C@@H](C(=O)N[C@H](CCCNC(=N)N)C(=O)N[C@@H](C(=O)N[C@H](CO)C(=O)N[C@H](CCCNC(=N)N)C(=O)N[C@@H](C(=O)NCC(=O)N[C@H](CCCNC(=N)N)C(=O)N[C@H](CO)C(=O)N[C@H](CCCNC(=N)N)C(=O)N[C@H](Cc1c[nH]c2ccccc12)C(=O)N[C@H](CCCNC(=N)N)C(=O)N[C@H](CC(=O)O)C(=O)N[C@H](Cc1c[nH]c2ccccc12)C(=O)N[C@H](CO)C(=O)N[C@H](CCCNC(=N)N)C(=O)N[C@H](CC(N)=O)C(=O)N[C@H](Cc1ccccc1)C(=O)N[C@H](CCSC)C(=O)N[C@H](CCCNC(=N)N)C(N)=O)[C@H](C)O)C(C)C)[C@H](C)O [Peptide 76, Lauryl-trvsrtgrsrwrdwsrnfmr-NH2] (Lauroyl-[dT][dR][dV][dS][dR][dT]G[dR][dS][dR][dW][dR][dD][dW][dS][dR][dN][dF][dM][dR]-NH2)	3.3 µM	5.49 µM	2 µg/mL (≈ 0.716 µM)	4 µg/mL (≈ 1.43 µM)	32 µg/mL (≈ 11.5 µM)	16 µg/mL (≈ 5.73 µM)	1 µg/mL (≈ 0.358 µM)		16e ug/mL	1.12 µM	64c ug/mL		
CCCCCCCCCCCC(=O)N[C@H](CCCNC(=N)N)C(=O)N[C@H](CO)C(=O)N[C@H](CCCNC(=N)N)C(=O)N[C@H](Cc1c[nH]c2ccccc12)C(=O)N[C@H](CCCNC(=N)N)C(=O)N[C@H](CC(=O)O)C(=O)N[C@@H](C(=O)N[C@H](C)C(=O)N[C@H](CCCNC(=N)N)C(=O)N[C@H](CC(N)=O)C(=O)N[C@H](Cc1ccccc1)C(=O)N[C@H](CCSC)C(=O)N[C@H](CCCNC(=N)N)C(N)=O)C(C)C [Peptide 90, Lauryl-rsrwrdvarnfmr-NH2] (Lauroyl-[dR][dS][dR][dW][dR][dD][dV][dA][dR][dN][dF][dM][dR]-NH2)	5 to 15 µM	5 to 15 µM	4 µg/mL (≈ 2.07 µM)	4 µg/mL (≈ 2.07 µM)		4 µg/mL (≈ 2.07 µM)	4 µg/mL (≈ 2.07 µM)		16e ug/mL		8c ug/mL	3b ug/mL	
CSCC[C@H](NC(=O)[C@H](Cc1ccccc1)NC(=O)[C@H](CC(N)=O)NC(=O)[C@H](CCCNC(=N)N)NC(=O)[C@H](CO)NC(=O)[C@@H](NC(=O)[C@H](CC(=O)O)NC(=O)[C@H](CCCNC(=N)N)NC(=O)[C@H](Cc1c[nH]c2ccccc12)NC(=O)[C@H](CCCNC(=N)N)NC(=O)[C@H](CO)NC(=O)[C@H](CCCNC(=N)N)NC(C)=O)C(C)C)C(=O)N[C@@H](CCCNC(=N)N)C(N)=O [Peptide 93, Ac-RSRWRDVSRNFMR-NH2] (Ac-RSRWRDVSRNFMR-NH2)			>64 µg/mL	>64 µg/mL	>64 µg/mL	>64 µg/mL	>64 µg/mL			0.8 µM			dose response of reduction of IL-12 release
